The numbers were not newly measured in US6241994A, “Solid TCMTB formulations” (Buckman Laboratories International, Inc., priority 1998, dated 2001), which cites them from elsewhere.

The conditions of data set [1]: unstable at temperatures greater than the value.
The conditions of data set [2]: for pH above which the substance decomposes: decomposition at a pH above the value.

`N#CSCSC#N` [MTC, methylene bisthiocyanate]: the “temperature above which considered unstable” value in data set [1] was “greater than 100 °C”. Also, under “most of organic solvents”, the “solubility in most of organic solvents” value is given as “soluble”. For the same compound, the “stability in acidic systems” value in data set [2] (acidic systems, ambient temperature) is on record as “stable”. Moreover, in data set [2], the “pH above which the substance decomposes” value was “above 7.5”.
For the compound `N#CSCSc1nc2ccccc2s1` [TCMTB, 2-(thiocyanomethylthio)-benzothiazole], the solubility in water entry (in water) is listed as “about 0.033 g/l”. Besides, in data set [2], the “pH above which the substance decomposes” value is reported as “above 8.0”.
